# Test results from PubChem BioAssay (NCI).
# “And” between values parts separate entries of the source, which are not always exact repeats. Equal values may be shown once.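 Assay format: 96-well plates, 48-hour exposure. GI50 is the concentration that inhibits growth by half. The concentration for full growth arrest is given as TGI.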
# Key:
# Assay in all cases: NCI anticancer screen, dose series, 48 h
# HCT-15 colon = tested on: HCT-15 colon
# K-562 leukemia = tested on: K-562 leukemia
# SK-OV-3 ovarian = tested on: SK-OV-3 ovarian
# T-47D breast = tested on: T-47D breast
# SN12C renal = tested on: SN12C renal
# COLO 205 colon = tested on: COLO 205 colon
# MDA-MB-231 breast = tested on: MDA-MB-231 breast
# HCC-2998 colon = tested on: HCC-2998 colon
# NCI/ADR-RES ovarian = tested on: NCI/ADR-RES ovarian
# SF-295 CNS = tested on: SF-295 CNS
Compound,GI50 (HCT-15 colon),TGI (HCT-15 colon),GI50 (K-562 leukemia),TGI (K-562 leukemia),GI50 (SK-OV-3 ovarian),TGI (SK-OV-3 ovarian),GI50 (T-47D breast),TGI (T-47D breast),GI50 (SN12C renal),TGI (SN12C renal),GI50 (COLO 205 colon),TGI (COLO 205 colon),GI50 (MDA-MB-231 breast),TGI (MDA-MB-231 breast),GI50 (HCC-2998 colon),TGI (HCC-2998 colon),GI50 (NCI/ADR-RES ovarian),TGI (NCI/ADR-RES ovarian),GI50 (SF-295 CNS),TGI (SF-295 CNS)
CN(CCCCCl)P(=O)(OCc1ccc([N+](=O)[O-])o1)C(F)(F)c1ccc(CC(=O)N[C@@H](CC(=O)O)C(=O)N[C@@H](Cc2ccc(C(F)(F)P(=O)(OCc3ccc([N+](=O)[O-])o3)N(C)CCCCCl)cc2)C(N)=O)cc1 (some centres undefined),> 100 µM,> 100 µM,22.4 µM,55.7 µM,> 100 µM,> 100 µM,39.1 µM,> 100 µM,> 100 µM,> 100 µM,41 µM,> 100 µM,39.6 µM,> 100 µM,24.5 µM,56.7 µM,> 100 µM,> 100 µM,> 100 µM,> 100 µM
COc1ccc(-c2cn(-c3ccc(Cl)cc3)c(=S)[nH]2)cc1OC,5.22 µM,> 100 µM,> 100 µM,> 100 µM,48.9 µM,> 100 µM,6.09 µM,> 100 µM,7.52 µM,> 100 µM,5.61 µM,> 100 µM,1.5 µM,87 µM,56.2 µM,> 100 µM,5.3 µM,> 100 µM,6.05 µM,> 100 µM
C[As](C)Sc1ccnc(S[As](C)C)n1,0.928 µM,14.7 µM,1.06 µM,–,12.4 µM,> 100 µM,22.9 µM,> 100 µM,3.41 µM,15.8 µM,1.53 µM,> 39.3 µM,2.62 µM,15.8 µM,3.02 µM,10.5 µM,7.72 µM,> 25.9 µM,27.2 µM,> 59.2 µM
O=S(=O)(O)c1ccc(Cl)cc1.[Cd],> 100 µM,> 100 µM,37.5 µM,> 100 µM,> 100 µM,> 100 µM,27 µM,53.8 µM,> 100 µM,> 100 µM,> 100 µM,> 100 µM,> 100 µM,> 100 µM,> 100 µM,> 100 µM,> 100 µM,> 100 µM,> 100 µM,> 100 µM
CS(=O)(=O)N1CCN(Cc2cc3nc(-c4cccc5[nH]ncc45)nc(N4CCOCC4)c3s2)CC1,0.721 µM and 0.453 µM,> 100 µM,3.91 µM and > 2.17 µM,> 100 µM,0.243 µM and 0.145 µM,3.84 µM and 1.68 µM,0.0668 µM and 0.035 µM,0.505 µM,0.493 µM and 0.224 µM,> 100 µM,0.499 µM and 0.163 µM,> 100 µM,2.62 µM and 0.504 µM,> 100 µM,0.614 µM and 0.153 µM,> 100 µM,1.76 µM and 1.44 µM,> 100 µM,0.262 µM and 0.318 µM,3.11 µM and 3.62 µM
O=C(O)c1cc(N/C=C2\C(=O)c3ccccc3OC2O)ccc1O (centres undefined),15.7 µg/mL,44.7 µg/mL,13.3 µg/mL,72.1 µg/mL,29.3 µg/mL,75.1 µg/mL,5.34 µg/mL,46.2 µg/mL,25.5 µg/mL,97.3 µg/mL,30.6 µg/mL,77.9 µg/mL,24.5 µg/mL,78.9 µg/mL,27.4 µg/mL,50.2 µg/mL,21.1 µg/mL,82.8 µg/mL,18.1 µg/mL,52.8 µg/mL
